According to patent publication US20230102192A1, “THERAPIES FOR THE TREATMENT OF DISEASES AND DISORDERS ASSOCIATED WITH ABNORMAL EXPRESSION OF A NEURAL-ASSOCIATED GENE” (The Regents of the University of California, priority 2020, published 2023):
“Also recorded” adds a separate entry of the source.

Columns and labels:
Type in all cases: cell-based, human
MECP2-KO neurons = test: Calcium imaging of neurons; settings: vs untreated KO
Experimental: Pharmacologic treatment. One-month old cortical organoids were treated for 1 mo with either Nefiracetam (10 μM) or PHA 543613 (10 μM) during media changes.
Calcium imaging. Calcium imaging was performed as described in Chailangkarn et al. Briefly, PSC-derived neuronal networks were lentivirally transduced with a Syn::RFP reporter construct. Cultures were washed with Krebs HEPES buffer and incubated with Fluo-4AM (Molecular Probes/Invitrogen, Carlsbad, Calif., USA). A Hamamatsu ORCA-ER digital camera (Hamamatsu Photonics, Japan) with 488 nm filter on an Olympus IX81 inverted fluorescence confocal microscope (Olympus Optical, Tokyo, Japan) acquired 5000 frames at 28 Hz in a 256×256 pixel region (100× magnification). Images were acquired with MetaMorph7.7 (MDS Analytical Technologies, Sunnyvale, Calif., USA) and analyzed with ImageJ and Matlab7.2 (Mathworks, Natick, Mass., USA). Syn::RFP+ neurons were selected following tetrodotoxin blockade of calcium transients. A 95th-percentile threshold of amplitude for calcium spikes was set for event detection; signal amplitude is presented as fluorescence change (ΔF/F) following background subtraction.

[1] = test system: MECP2-mosaic (CTR/KO) neurospheres; test: Neurosphere size (diameter); settings: 8-week MECP2-mosaic neurospheres, P=0.79
Text: Nefiracetam and PHA 543613 increase activity in MECP2-mosaic neurospheres. Because MECP2 resides on the X chromosome, random X-inactivation in females can produce a genetic pattern of mosaicism, with consequent phenotypic gradation, in which some cells express the normal allele while others are mutant. Therefore, as the next stage to evaluate the two drug candidates, a neurosphere model of MECP2 mosaicism was developed to mimic the female RTT brain by combining different proportions of control and MECP2-KO NPCs (see FIG. 7A-C). […] Calcium transient frequency in MECP2-mosaic neurospheres was increased by treatment with Nefiracetam in isolation (1 μM, P<0.05) and when combined with PHA 543613 (10 μM, P<0.001; FIG. 7H), but calcium transient amplitude was unaffected by either compound (P=0.255; FIG. 7I). To investigate the impact of the drug treatments on the electrophysiological properties of the MECP2-mosaic model, neurospheres treated with 1 μM Nefiracetam, 1 μM PHA 543613, or both Nefiracetam and PHA 543613 were plated to perform MEA analysis. […] Because each drug conferred a benefit to MECP2-mosaic neurospheres, both Nefiracetam and PHA 543613 were retained for further evaluation in a more complex human neurodevelopmental model.

[2] = test system: MECP2-mosaic (CTR/KO) neurospheres; test: MEA analysis of neurospheres; settings: 1 μM, after 5 weeks of treatment, vs CTR/KO untreated
Experimental: Multi-electrode array (MEA) analysis. MEA analyses of neurons and cortical organoids were performed as described in Nageshappa et al. (Mol. Psychiatry 21:178-188 (2016)). Briefly, 3D neurosphere cultures of NPC derivation were plated on dual-chamber MEA; spontaneous spike activity was evaluated with the MED64 System (Panasonic). Glutamatergic (AP5, NBQX), GABAergic (Gabazine), and gap channel (Mefloquine) antagonism were used to check neuronal activity. After measurement, neurons were immunostained to check morphology and density. Recorded spikes were analyzed with the software Neuroexplorer (Nex Technologies, Madison, Ala., USA). For cortical organoids, 1-month organoids were plated on MEA plates and recordings were collected with a Maestro MEA system and AxIS Software Spontaneous Neural Configuration (Axion Biosystems, Atlanta, Ga., USA) using a customized script. The plate rested in the machine for three minutes followed by four minutes of recording. Axion Biosystems' Neural Metrics Tool classified electrodes with at least 5 spikes/min as active. Bursts were identified using an inter-spike interval (ISI) threshold requiring a 5-spike minimum and 100 ms maximum ISI. […] The synchrony index was calculated using a 20 ms cross-correlogram synchrony window was used to determine the synchrony index. […]

[3] = test system: MECP2-KO cortical organoids; test: RNA sequencing and gene ontology analysis of cortical organoids; settings: 1 μM for one month, two-month old organoids
Experimental: RNA-seq analyses. RNA-seq analyses were performed as described in Marchetto et al. (Nature 504:525-529 (2013)). Briefly, RNeasy Mini kit (Qiagen) isolated RNA for library preparation (Illumina TruSeq RNA Sample Preparation Kit; San Diego, Calif., USA) and sequencing (Illumina HiSeq2000, 50 bp paired-end reads, 50 million high-quality sequencing fragments per sample on average).
Gene ontology (GO) analysis. RNA-seq enrichment was with plugins WebGestalt and Cytoscape and considered only statistically significant categories (P<0.05). Genes evaluated for differential expression set the background for GO annotation and enrichment analysis.
Nefiracetam and PHA 543613 rescue network activity in MECP2-KO cortical organoids. The therapeutic efficacy of Nefiracetam and PHA 543613 was evaluated with cortical organoids, a complex, three-dimensional human neurodevelopmental model that closely recapitulates aspects of human fetal neurodevelopment. MECP2-KO and control cortical organoids were generated, as described above (see FIG. 9A, and FIG. 10A-B). One-month old cortical organoids were treated for another month with either Nefiracetam (1 μM) or PHA 543613 (1 μM), and experiments and analyses were performed using organoids at 2-3 months of age. […]

[4] = test system: MECP2-mosaic (CTR/KO) neurospheres; test: Nuclei size in neurospheres; settings: vs CTR/KO untreated
[5] = test system: MECP2-KO cortical organoids; test: Nuclei size in cortical organoids; settings: vs KO untreated

## Cc1cccc(C)c1NC(=O)CN1CCCC1=O [Nefiracetam, nefiracetam]
MECP2-KO neurons
  frequency of calcium oscillations: increases; also recorded: significantly increase
  percentage of active neurons: increase
[1]
  neurosphere diameter: did not alter
[2]
  MEA overall spike count / spike frequency: increased
[3]
  expression of genes in pathways relevant to synaptic function: promoted expression; also recorded: upregulated genetic expression
[4]
  nuclei size in neurospheres: did not rescue
[5]
  nuclei size in cortical organoids: did not rescue

## O=C(N[C@H]1CN2CCC1CC2)c1cc2ccoc2cn1 [PHA 543613, N-[(3R)-1-azabicyclo[2.2.2]oct-3-yl]furo[2,3-c]pyridine-5-carboxamide]
MECP2-KO neurons
  frequency of calcium oscillations: increases; also recorded: significantly increase
  percentage of active neurons: increase
[1]
  neurosphere diameter: did not alter
[2]
  MEA overall spike count / spike frequency: increased
[3]
  expression of genes in pathways relevant to synaptic function: promoted expression; also recorded: upregulated expression
[4]
  nuclei size in neurospheres: did not rescue
[5]
  nuclei size in cortical organoids: did not rescue
